Measurements published in US11185514B2, “Aqueous solution comprising a polyphenol” (OPTERION Health AG, priority 2015, dated 2021).
In brackets after ≈: the same amount, converted by molar mass.

Columns and labels:
[1] = Solubility after one hour stirring at RT as a function of glucose or icodextrin concentration in salt solution at pH 3 or pH 7 (Example 1); type: physicochemical; conditions: 0% glucose or icodextrin
Description: Concentrations of stilbenoid in the present invention are measured after 1 hour stirring at room temperature, which is preferably 20-23° C., more preferably 22°. So, stilbenoid concentrations correspond to measured solubility after 1 hour stirring at room temperature. Concentration is measured in aqueous solution, comprising the stilbenoid and the at least one saccharide. If not specifically indicated, or if not specifically indicated otherwise, the time of stirring is one hour. In some cases, other stirring times are indicated, such as 12 hours. […] With increasing concentrations of saccharides, less variations were observed. This is highly beneficial for pharmacological formulations. For analysis R and P and their impurities were separated by a C-18 column with a gradient system and UV-detection at 306 nm. Solubility and stability of Resveratrol and […] after one hour stirring at RT, as a function of glucose or icodextrin concentration in a solution, containing 5.4 g/L NaCl, 4.5 g/L NaLactate, 0.275 g/L CaCl2, and 0.051 g/L MgCl2, buffered at pH 3 or pH 7. Solubility was measured after one hour stirring at room temperature, in presence of excess solute, followed by filtering.

[2] = Stability after one hour stirring at RT as a function of glucose or icodextrin concentration in salt solution at pH 3 or pH 7 (Example 1); type: physicochemical; conditions: pH of 3 to 3.5
Description: For analysis R and P and their impurities were separated by a C-18 column with a gradient system and UV-detection at 306 nm. Solubility and stability of Resveratrol and […] after one hour stirring at RT, as a function of glucose or icodextrin concentration in a solution, containing 5.4 g/L NaCl, 4.5 g/L NaLactate, 0.275 g/L CaCl2, and 0.051 g/L MgCl2, buffered at pH 3 or pH 7. Solubility was measured after one hour stirring at room temperature, in presence of excess solute, followed by filtering.

[3] = Solubility in commercial peritoneal dialysis solutions (Medium B, E, F), 5 minutes to 12 hours stirring (Example 2); type: physicochemical; conditions: for P in Medium B found: Medium B (106.5 g/L anhydrous glucose, pH 3.5); for P in Medium B found / P in Medium E found / P in Medium F found: room temperature; for P in Medium E found: Medium E (75 g/L Icodextrin, pH 3); for P in Medium F found: Medium F (30 g/L anhydrous glucose, pH 3)
Description: (§1) Solubility studies were carried out commercially available peritoneal dialysis solutions Fresenius Safestay® 1.5% glucose, Baxter Physioneal® 3.86% glucose and Baxter Extraneal® (7.5% icodextrin), precisely in acidic glucose solutions, such as applied in two compartiment peritoneal dialysis applications Stay Safe® and Physioneal®, as well as in Extraneal® Solution that had previously been acidified to pH3. Medium B (117.14 g/L glucose monohydrate (equivalent to 106.5 g/L anhydrous glucose), 0.507 g/L Calcium chloride dihydrate, 0.140 g/L Magnesium chloride hexahydrate, measured pH 3.5), Medium E (75 g/L Icodextrin, 5.35 g/L Sodium Chloride, 4.48 g/L Sodium Lactate, 257 mg/L Calcium Chloride USP, 50.8 mg/L Magnesium Chloride USP, adjusted to pH 3 in our lab), and Medium F (30 g/L anhydrous glucose, 11.279 g/L Sodium chloride, 0.3675 g/L Calcium chloride dihydrate, 0.2033 g/L Magnesium chloride hexahydrate, measured pH 3).
Solubility was measured after 5 minutes to 12 hours stirring at room temperature, in presence of excess solute, followed by filtering.
Solubility was measured after one hour or 12 hours stirring at room temperature, in presence of excess solute, followed by filtering.

[4] = Stability of Resveratrol in commercial dialysis solutions during autoclavation (Example 4); type: physicochemical
Description: For analysis R and P and their impurities were separated by a C-18 column with a gradient system and UV-detection at 306 nm.
as §1
Stability of Resveratrol in commercial dialysis solutions during autoclavation. Experiment was carried out in previous defined media B, E and F. 25 mg of resveratrol were sonicated in each medium and 0.45 μm filtered to give clear solutions. Obtained solutions were autoclaved for 30 min at 121° C.

[5] = Solubility after one hour stirring at RT as a function of saccharide concentration in H2O (Examples 5-9); type: physicochemical; conditions: 24% N-acetylglucosamin in H2O, 1 hour stirring RT
Description: (§2) Solubility measurements after 1 hour stirring at RT generated some variability in-between measurement series, which might be due to low temperature variations, back-ground measurements and experimental imprecisions. […] The here calculated factors of increase of solubility are therefore to be considered as conservative.
Solubility of Resveratrol after one hour stirring at RT, as a function of the concentration of Maltose, Maltotriose, Isomaltotriose, and Maltotetraose in H2O. Solubility was measured after one hour stirring at room temperature, in presence of excess solute, followed by filtering. […] Concentration of Maltose and maltotriose of 7.5% increased solubility of the stilbenoid resveratrol by a factor higher than 6 and 3 respectively.
Solubility of Resveratrol after one hour stirring at RT, as a function of the concentration of Maltodextrin DE 16-19 (DE═dextrose equivalents), Maltodextrin DE 4-7 or Icodextrin in H2O. Solubility was measured after one hour stirring at room temperature, in presence of excess solute, followed by filtering.
Solubility of Resveratrol after one hour stirring at RT, as a function of the concentration of Dextran 2.5-4 kD, Dextran 10 kD, Glycogen 100 kD, and Pullulan 100-200 kD, in H2O. Solubility was measured after one hour stirring at room temperature, in presence of excess solute, followed by filtering. […]

[6] = Solubility of resveratrol in water / aqueous solution after stirring at room temperature (general statements); type: physicochemical
Description: Concentrations of stilbenoid in the present invention are measured after 1 hour stirring at room temperature, which is preferably 20-23° C., more preferably 22°. So, stilbenoid concentrations correspond to measured solubility after 1 hour stirring at room temperature. Concentration is measured in aqueous solution, comprising the stilbenoid and the at least one saccharide. If not specifically indicated, or if not specifically indicated otherwise, the time of stirring is one hour. In some cases, other stirring times are indicated, such as 12 hours. […] With increasing concentrations of saccharides, less variations were observed. This is highly beneficial for pharmacological formulations.
as §2

[7] = cited from earlier work

| effect of pH3 versus pH7 on solubility [1] | stabilization by pH [2] | P in Medium B found ([3]; stirring time 60 min) | P in Medium B found ([3]; stirring time 12 h) | P in Medium E found ([3]; stirring time 60 min) | P in Medium E found ([3]; stirring time 12 h) | P in Medium F found ([3]; stirring time 60 min) | P in Medium F found ([3]; stirring time 12 h) | stability of solubilized piceid over stirring time ([3]; commercial dialysis solutions, between 1 and 12 hours stirring) | solubility relative to referred absolute solubility (approximately 30 mg/L) ([3]; 7.5% Icodextrin (Medium E), 12 hours stirring) | stability on heat sterilization ([4]; pH 3 adjusted Extraneal solution, heat sterilization) | stability during standard heat-sterilization ([4]; saccharide containing dialysis solutions at pH3, specifically in presence of 7.5% Icodextrin) | increase of concentration [5] | solubility at 1 h ([6]; 22 °C, thermodynamic from solid, after 1 hour stirring, distilled water, variation between measurements) | concentration of resveratrol after 12 hours ([6]; 12 hours stirring) | SMILES | referred absolute solubility of Resveratrol in aqueous solution [7] |
| --- | --- | --- | --- | --- | --- | --- | --- | --- | --- | --- | --- | --- | --- | --- | --- | --- |
| slightly increases solubility | significantly stabilize | 485.6 mg/L | 342.9 mg/L | 1585.5 mg/L | 1370.3 mg/L | 493.8 mg/L | 461.4 mg/L | stable between 1 and 12 hours |  |  |  |  |  |  | OC[C@H]1O[C@@H](Oc2cc(O)cc(/C=C/c3ccc(O)cc3)c2)[C@H](O)[C@@H](O)[C@@H]1O [Piceid, resveratrol-3-O-β-mono-D-glucoside] |  |
| slightly increases solubility | significantly stabilize |  |  |  |  |  |  |  | about 4 times | without degradation | remarkably high | 12 times | 1 to 6.5 µg/mL (≈ 4.38 to 28.5 µM) | above 24 mg/L | Oc1ccc(/C=C/c2cc(O)cc(O)c2)cc1 [Resveratrol, trans-3,5,4′-trihydroxystilbene] | approximately 30 mg/L |
